This note sets out measurements from ChEMBL document CHEMBL3390847, “Boronic acids in medicinal chemistry: anticancer, antibacterial and antiviral applications” (Medchemcomm, 2010).

Test [1] can be described thus: Cytotoxicity against human MCF10A cells. The format is cell-based. The settings on record: MCF-10A.
Test [2] is described as follows: Cytotoxicity against human MCF12A cells. The format is cell-based. To be noted: MCF-12A.
The nature of test [3]: Inhibition of beta-lactamase SHV-1 (unknown origin) expressed in Escherichia coli DH10B using nitrocefin as substrate.
Test [4] in a line: Inhibition of beta-lactamase SHV-1 D104K/G238S mutant (unknown origin) expressed in Escherichia coli DH10B using nitrocefin as substrate.

As for `O=C(/C=C/c1ccc(I)cc1)c1ccc(OCB(O)O)cc1`, the IC50 (as a rule, the concentration at which inhibition is half-maximal) in test [1] is 38 µM; in test [2], 100 µM.

Consider `CC(=O)NCB(O)O` [ACETAMIDOMETHYLBORONIC ACID], for which the Ki (as a rule, the equilibrium dissociation constant of an inhibitor or competing ligand from its target) in test [3] stood at 8.9 µM; in test [4], 1.1 µM.
